CN1CCN(C2=Nc3cc(Cl)ccc3Nc3ccccc32)CC1
Conditions	solubility (mole fraction)
in 1,2-dichloroethane, 283.15 K	0.0117
in 1,2-dichloroethane, 288.15 K	0.0157
in 1,2-dichloroethane, 293.15 K	0.0183
in 1,2-dichloroethane, 298.15 K	0.0215
in 1,2-dichloroethane, 303.15 K	0.0243
in 1,2-dichloroethane, 308.15 K	0.0285
in 1,2-dichloroethane, 313.15 K	0.0314
in 1,2-dichloroethane, 318.15 K	0.0386
in 1,2-dichloroethane, 323.15 K	0.0464
in 1,2-dichloroethane, 328.15 K	0.0573
in 1,2-dichloroethane, 333.15 K	0.0648
in DMF, 283.15 K	0.0781
in DMF, 288.15 K	0.0844
in DMF, 293.15 K	0.0893
in DMF, 298.15 K	0.0936
in DMF, 303.15 K	0.101
in DMF, 308.15 K	0.111
in DMF, 313.15 K	0.122
in DMF, 318.15 K	0.133
in DMF, 323.15 K	0.145
in DMF, 328.15 K	0.155
in DMF, 333.15 K	0.17
in DMSO, 293.15 K	0.0596
in DMSO, 298.15 K	0.064
in DMSO, 303.15 K	0.0709
in DMSO, 308.15 K	0.0836
in DMSO, 313.15 K	0.0949
in DMSO, 318.15 K	0.109
in DMSO, 323.15 K	0.119
in DMSO, 328.15 K	0.139
in DMSO, 333.15 K	0.159
in NMP, 283.15 K	0.0305
in NMP, 288.15 K	0.0406
in NMP, 293.15 K	0.0474
in NMP, 298.15 K	0.0525
in NMP, 303.15 K	0.0606
in NMP, 308.15 K	0.0687
in NMP, 313.15 K	0.075
in NMP, 318.15 K	0.0827
in NMP, 323.15 K	0.0987
in NMP, 328.15 K	0.113
in NMP, 333.15 K	0.118
in acetone, 283.15 K	0.00791
in acetone, 288.15 K	0.00914
in acetone, 293.15 K	0.0122
in acetone, 298.15 K	0.0139
in acetone, 303.15 K	0.0164
in acetone, 308.15 K	0.018
in acetone, 313.15 K	0.0201
in acetone, 318.15 K	0.0236
in acetone, 323.15 K	0.0278
in benzene, 283.15 K	0.00583
in benzene, 288.15 K	0.00619
in benzene, 293.15 K	0.00676
in benzene, 298.15 K	0.00771
in benzene, 303.15 K	0.00967
in benzene, 308.15 K	0.0119
in benzene, 313.15 K	0.0152
in benzene, 318.15 K	0.0181
in benzene, 323.15 K	0.0208
in benzene, 328.15 K	0.0259
in benzene, 333.15 K	0.0303
in ethanol, 283.15 K	0.0057
in ethanol, 288.15 K	0.00581
in ethanol, 293.15 K	0.00644
in ethanol, 298.15 K	0.00702
in ethanol, 303.15 K	0.00767
in ethanol, 308.15 K	0.00837
in ethanol, 313.15 K	0.0089
in ethanol, 318.15 K	0.0103
in ethanol, 323.15 K	0.0112
in ethanol, 328.15 K	0.0128
in ethanol, 333.15 K	0.0158
in isopropanol, 283.15 K	0.00272
in isopropanol, 288.15 K	0.00278
in isopropanol, 293.15 K	0.00296
in isopropanol, 298.15 K	0.00327
in isopropanol, 303.15 K	0.00374
in isopropanol, 308.15 K	0.0044
in isopropanol, 313.15 K	0.00503
in isopropanol, 318.15 K	0.00591
in isopropanol, 323.15 K	0.00643
in isopropanol, 328.15 K	0.00846
in isopropanol, 333.15 K	0.0103
in methanol, 283.15 K	0.00638
in methanol, 288.15 K	0.00648
in methanol, 293.15 K	0.00713
in methanol, 298.15 K	0.00785
in methanol, 303.15 K	0.0088
in methanol, 308.15 K	0.00975
in methanol, 313.15 K	0.0103
in methanol, 318.15 K	0.0109
in methanol, 323.15 K	0.0118
in methanol, 328.15 K	0.0143
in n-propanol, 283.15 K	0.00617
in n-propanol, 288.15 K	0.00619
in n-propanol, 293.15 K	0.00669
in n-propanol, 298.15 K	0.00754
in n-propanol, 303.15 K	0.00794
in n-propanol, 308.15 K	0.00863
in n-propanol, 313.15 K	0.0109
in n-propanol, 318.15 K	0.0127
in n-propanol, 323.15 K	0.0142
in n-propanol, 328.15 K	0.0171
in n-propanol, 333.15 K	0.0199
in toluene, 283.15 K	0.00352
in toluene, 288.15 K	0.00465
in toluene, 293.15 K	0.00549
in toluene, 298.15 K	0.00651
in toluene, 303.15 K	0.0075
in toluene, 308.15 K	0.00858
in toluene, 313.15 K	0.0105
in toluene, 318.15 K	0.0118
in toluene, 323.15 K	0.014
in toluene, 328.15 K	0.0164
in toluene, 333.15 K	0.0202

From BigSolDB 2.1
